# Measurements as given in patent publication US20060083830A1, “Polylysine-containing food additive and acidic adjuvant” (priority 2004, published 2006).
# Several values for one entry are separate records, joined by “and”; a condition that tells them apart may be missing. Equal values may be shown once.
# Tested on: Listeria monocytogenes
# Assay: L. monocytogenes on cooked ground turkey balls blended with ε-polylysine, vacuum packaged, stored at 10° C., CFU determination
# Type: cell-based
# Details: for Log Reduction: vs control Group A
# Procedure: Six groups of 20 g ground uncooked turkey balls were prepared, with 27 balls prepared per group. […] Groups B-F were blended with varying amounts of ε-polylysine (“ε-PL”). Final concentrations of ε-polylysine within the turkey balls were:
# After preparation, all meatballs were placed on baking sheets and baked in a conventional oven at 350° F. for 20 minutes. After baking, the meatballs were packaged separately and stored at 4° C.
# The mixture was further diluted 1:10,000 times with sterile saline to produce a suspension for use.
# 20 microliters of the Listeria monocytogenes suspension was inoculated onto the exterior of each turkey ball. Turkey balls were incubated at room temperature for 30 min post-inoculation to allow bacteria to attach. Turkey balls were individually vacuum packaged and stored at 10° C.
# The microbiological assay was performed after 3 hours, 24 hours, 1 week, 2 weeks, 3 weeks, 4 weeks, 5 weeks, 7 weeks, and 8 weeks. After each designated time period had passed, three bags from each group of meat balls were unpacked, transferred to a stomacher bag along with 20 ml of sterile 0.1% peptone water. Each meatball was hand crushed and stomached at high speed for 2 minutes. […] The letter “{overscore (A)}” denotes average.
substance,measurement,setting,value
"poly(imino(2-amino-1-oxo-1,6-hexanediyl)) [ε-PL]",CFU/g,"1000 ppm ε-PL, after 1 week",5.35E+06 CFU/g and 3.75E+06 CFU/g and 4.05E+06 CFU/g
same,average Log Value,"1000 ppm ε-PL, after 1 week",6.64
same,average of CFU/g,"1000 ppm ε-PL, after 1 week",4.38E+06 CFU/g
same,Log Reduction,"1000 ppm ε-PL, after 1 week",1.64
same,average Log Value,"1000 ppm ε-PL, after 2 weeks",7.61
same,average of CFU/g,"1000 ppm ε-PL, after 2 weeks",4.09E+07 CFU/g
same,Log Reduction,"1000 ppm ε-PL, after 2 weeks",0.68
same,average Log Value,"1000 ppm ε-PL, after 3 weeks",6.73
same,average of CFU/g,"1000 ppm ε-PL, after 3 weeks",5.24E+06 CFU/g
same,Log Reduction,"1000 ppm ε-PL, after 3 weeks",1.66
same,average Log Value,"1000 ppm ε-PL, after 4 weeks",7.73
same,average of CFU/g,"1000 ppm ε-PL, after 4 weeks",5.42E+07 CFU/g
same,Log Reduction,"1000 ppm ε-PL, after 4 weeks",0.74
same,average Log Value,"1000 ppm ε-PL, after 5 weeks",7.98
same,average of CFU/g,"1000 ppm ε-PL, after 5 weeks",9.64E+07 CFU/g
same,Log Reduction,"1000 ppm ε-PL, after 5 weeks",0.44
same,average Log Value,"1000 ppm ε-PL, after 7 weeks",7.80
same,average of CFU/g,"1000 ppm ε-PL, after 7 weeks",6.33E+07 CFU/g
same,Log Reduction,"1000 ppm ε-PL, after 7 weeks",0.62
same,average Log Value,"1000 ppm ε-PL, after 8 weeks",7.66
same,average of CFU/g,"1000 ppm ε-PL, after 8 weeks",4.53E+07 CFU/g
same,Log Reduction,"1000 ppm ε-PL, after 8 weeks",0.68
same,CFU/g,"1000 ppm ε-PL, after 3 hours",2.34E+02 CFU/g and 1.54E+02 CFU/g and 1.56E+02 CFU/g
same,average Log Value,"1000 ppm ε-PL, after 3 hours",2.26
same,average of CFU/g,"1000 ppm ε-PL, after 3 hours",1.81E+02 CFU/g
same,Log Reduction,"1000 ppm ε-PL, after 3 hours",0.53
same,average Log Value,"1000 ppm ε-PL, after 24 hours",3.25
same,average of CFU/g,"1000 ppm ε-PL, after 24 hours",1.77E+03 CFU/g
same,Log Reduction,"1000 ppm ε-PL, after 24 hours",>0.48
same,average Log Value,"2000 ppm ε-PL, after 1 week",4.74
same,average of CFU/g,"2000 ppm ε-PL, after 1 week",5.50E+04 CFU/g
same,Log Reduction,"2000 ppm ε-PL, after 1 week",3.54
same,average Log Value,"2000 ppm ε-PL, after 2 weeks",4.98
same,average of CFU/g,"2000 ppm ε-PL, after 2 weeks",9.57E+04 CFU/g
same,Log Reduction,"2000 ppm ε-PL, after 2 weeks",3.31
same,average Log Value,"2000 ppm ε-PL, after 3 weeks",4.68
same,average of CFU/g,"2000 ppm ε-PL, after 3 weeks",4.73E+04 CFU/g
same,Log Reduction,"2000 ppm ε-PL, after 3 weeks",3.72
same,average Log Value,"2000 ppm ε-PL, after 4 weeks",>6.44
same,average of CFU/g,"2000 ppm ε-PL, after 4 weeks",>2.76E+06 CFU/g
same,Log Reduction,"2000 ppm ε-PL, after 4 weeks",<2.03
same,average Log Value,"2000 ppm ε-PL, after 5 weeks",5.90
same,average of CFU/g,"2000 ppm ε-PL, after 5 weeks",7.91E+05 CFU/g
same,Log Reduction,"2000 ppm ε-PL, after 5 weeks",2.53
same,average Log Value,"2000 ppm ε-PL, after 7 weeks",6.66
same,average of CFU/g,"2000 ppm ε-PL, after 7 weeks",4.53E+06 CFU/g
same,Log Reduction,"2000 ppm ε-PL, after 7 weeks",1.77
same,average Log Value,"2000 ppm ε-PL, after 8 weeks",6.19
same,average of CFU/g,"2000 ppm ε-PL, after 8 weeks",1.54E+06 CFU/g
same,Log Reduction,"2000 ppm ε-PL, after 8 weeks",2.15
same,CFU/g,"2000 ppm ε-PL, after 3 hours",1.94E+02 CFU/g and 1.96E+02 CFU/g and 1.50E+02 CFU/g
same,average Log Value,"2000 ppm ε-PL, after 3 hours",2.26
same,average of CFU/g,"2000 ppm ε-PL, after 3 hours",1.80E+02 CFU/g
same,Log Reduction,"2000 ppm ε-PL, after 3 hours",0.53
same,CFU/g,"2000 ppm ε-PL, after 24 hours",1.98E+02 CFU/g and 2.64E+02 CFU/g and 2.14E+02 CFU/g
same,average Log Value,"2000 ppm ε-PL, after 24 hours",2.35
same,average of CFU/g,"2000 ppm ε-PL, after 24 hours",2.25E+02 CFU/g
same,Log Reduction,"2000 ppm ε-PL, after 24 hours",>1.37
same,post-lethality effect,3000 ppm,> 1 log
same,average Log Value,"3000 ppm ε-PL, after 1 week",1.00
same,average of CFU/g,"3000 ppm ε-PL, after 1 week",1.00E+01 CFU/g
same,Log Reduction,"3000 ppm ε-PL, after 1 week",7.28
same,average Log Value,"3000 ppm ε-PL, after 2 weeks",1.44
same,average of CFU/g,"3000 ppm ε-PL, after 2 weeks",2.73E+01 CFU/g
same,Log Reduction,"3000 ppm ε-PL, after 2 weeks",6.85
same,average Log Value,"3000 ppm ε-PL, after 3 weeks",<1.67
same,average of CFU/g,"3000 ppm ε-PL, after 3 weeks",<4.67E+01 CFU/g
same,Log Reduction,"3000 ppm ε-PL, after 3 weeks",>6.72
same,average Log Value,"3000 ppm ε-PL, after 4 weeks",<0.43
same,average of CFU/g,"3000 ppm ε-PL, after 4 weeks",<2.67E+00 CFU/g
same,Log Reduction,"3000 ppm ε-PL, after 4 weeks",>8.05
same,CFU/g,"3000 ppm ε-PL, after 5 weeks",<2.00E+00 CFU/g
same,average Log Value,"3000 ppm ε-PL, after 5 weeks",<0.30
same,average of CFU/g,"3000 ppm ε-PL, after 5 weeks",<2.00E+00 CFU/g
same,Log Reduction,"3000 ppm ε-PL, after 5 weeks",>8.12
same,average Log Value,"3000 ppm ε-PL, after 7 weeks",<1.08
same,average of CFU/g,"3000 ppm ε-PL, after 7 weeks",<1.20E+01 CFU/g
same,Log Reduction,"3000 ppm ε-PL, after 7 weeks",>7.34
same,CFU/g,"3000 ppm ε-PL, after 8 weeks",<2.00E+00 CFU/g
same,average Log Value,"3000 ppm ε-PL, after 8 weeks",<0.30
same,average of CFU/g,"3000 ppm ε-PL, after 8 weeks",<2.00E+00 CFU/g
same,Log Reduction,"3000 ppm ε-PL, after 8 weeks",>8.03
same,average Log Value,"3000 ppm ε-PL, after 3 hours",1.51
same,average of CFU/g,"3000 ppm ε-PL, after 3 hours",3.20E+01 CFU/g
same,Log Reduction,"3000 ppm ε-PL, after 3 hours",1.28
same,CFU/g,"3000 ppm ε-PL, after 24 hours",5.00E+01 CFU/g and 6.40E+01 CFU/g and 7.20E+01 CFU/g
same,average Log Value,"3000 ppm ε-PL, after 24 hours",1.79
same,average of CFU/g,"3000 ppm ε-PL, after 24 hours",6.20E+01 CFU/g
same,Log Reduction,"3000 ppm ε-PL, after 24 hours",>1.93
same,average Log Value,"4000 ppm ε-PL, after 1 week",<0.52
same,average of CFU/g,"4000 ppm ε-PL, after 1 week",<3.35E+00 CFU/g
same,Log Reduction,"4000 ppm ε-PL, after 1 week",>7.76
same,CFU/g,"4000 ppm ε-PL, after 2 weeks",<2.00E+00 CFU/g
same,average Log Value,"4000 ppm ε-PL, after 2 weeks",<0.30
same,average of CFU/g,"4000 ppm ε-PL, after 2 weeks",<2.00E+00 CFU/g
same,Log Reduction,"4000 ppm ε-PL, after 2 weeks",>7.29
same,CFU/g,"4000 ppm ε-PL, after 3 weeks",<2.00E+00 CFU/g
same,average Log Value,"4000 ppm ε-PL, after 3 weeks",<0.3
same,average of CFU/g,"4000 ppm ε-PL, after 3 weeks",<2.00E+00 CFU/g
same,Log Reduction,"4000 ppm ε-PL, after 3 weeks",>8.09
same,CFU/g,"4000 ppm ε-PL, after 4 weeks",2.00E+00 CFU/g and <2.00E+00 CFU/g
same,average Log Value,"4000 ppm ε-PL, after 4 weeks",<0.30
same,average of CFU/g,"4000 ppm ε-PL, after 4 weeks",<2.00E+00 CFU/g
same,Log Reduction,"4000 ppm ε-PL, after 4 weeks",>8.17
same,CFU/g,"4000 ppm ε-PL, after 5 weeks",<2.00E+00 CFU/g
same,average Log Value,"4000 ppm ε-PL, after 5 weeks",<0.30
same,average of CFU/g,"4000 ppm ε-PL, after 5 weeks",<2.00E+00 CFU/g
same,Log Reduction,"4000 ppm ε-PL, after 5 weeks",>8.12
same,CFU/g,"4000 ppm ε-PL, after 7 weeks",<2.00E+00 CFU/g
same,average Log Value,"4000 ppm ε-PL, after 7 weeks",<0.30
same,average of CFU/g,"4000 ppm ε-PL, after 7 weeks",<2.00E+00 CFU/g
same,Log Reduction,"4000 ppm ε-PL, after 7 weeks",>8.12
same,CFU/g,"4000 ppm ε-PL, after 8 weeks",<2.00E+00 CFU/g
same,average Log Value,"4000 ppm ε-PL, after 8 weeks",<0.30
same,average of CFU/g,"4000 ppm ε-PL, after 8 weeks",<2.00E+00 CFU/g
same,Log Reduction,"4000 ppm ε-PL, after 8 weeks",>8.03
same,average Log Value,"4000 ppm ε-PL, after 3 hours",<1.17
same,average of CFU/g,"4000 ppm ε-PL, after 3 hours",<1.47E+01 CFU/g
same,Log Reduction,"4000 ppm ε-PL, after 3 hours",>1.62
same,average Log Value,"4000 ppm ε-PL, after 24 hours",1.29
same,average of CFU/g,"4000 ppm ε-PL, after 24 hours",1.93E+01 CFU/g
same,Log Reduction,"4000 ppm ε-PL, after 24 hours",>2.44
same,average Log Value,"5000 ppm ε-PL, after 1 week",1.95
same,average of CFU/g,"5000 ppm ε-PL, after 1 week",8.87E+01 CFU/g
same,Log Reduction,"5000 ppm ε-PL, after 1 week",6.33
same,average Log Value,"5000 ppm ε-PL, after 2 weeks",<0.30
same,average of CFU/g,"5000 ppm ε-PL, after 2 weeks",<2.00E+00 CFU/g
same,Log Reduction,"5000 ppm ε-PL, after 2 weeks",>7.99
same,CFU/g,"5000 ppm ε-PL, after 3 weeks",<2.00E+00 CFU/g
same,average Log Value,"5000 ppm ε-PL, after 3 weeks",<0.30
same,average of CFU/g,"5000 ppm ε-PL, after 3 weeks",<2.00E+00 CFU/g
same,Log Reduction,"5000 ppm ε-PL, after 3 weeks",>8.09
same,average Log Value,"5000 ppm ε-PL, after 4 weeks",<0.30
same,average of CFU/g,"5000 ppm ε-PL, after 4 weeks",<2.00E+00 CFU/g
same,Log Reduction,"5000 ppm ε-PL, after 4 weeks",<8.17
same,CFU/g,"5000 ppm ε-PL, after 5 weeks",<2.00E+00 CFU/g
same,average Log Value,"5000 ppm ε-PL, after 5 weeks",<0.30
same,average of CFU/g,"5000 ppm ε-PL, after 5 weeks",<2.00E+00 CFU/g
same,Log Reduction,"5000 ppm ε-PL, after 5 weeks",>8.12
same,CFU/g,"5000 ppm ε-PL, after 7 weeks",<2.00E+00 CFU/g
same,average Log Value,"5000 ppm ε-PL, after 7 weeks",<0.30
same,average of CFU/g,"5000 ppm ε-PL, after 7 weeks",<2.00E+00 CFU/g
same,Log Reduction,"5000 ppm ε-PL, after 7 weeks",>8.12
same,CFU/g,"5000 ppm ε-PL, after 8 weeks",<2.00E+00 CFU/g
same,average Log Value,"5000 ppm ε-PL, after 8 weeks",<0.30
same,average of CFU/g,"5000 ppm ε-PL, after 8 weeks",<2.00E+00 CFU/g
same,Log Reduction,"5000 ppm ε-PL, after 8 weeks",>8.03
same,average Log Value,"5000 ppm ε-PL, after 3 hours",0.60
same,average of CFU/g,"5000 ppm ε-PL, after 3 hours",4.00E+00 CFU/g
same,Log Reduction,"5000 ppm ε-PL, after 3 hours",2.18
same,average Log Value,"5000 ppm ε-PL, after 24 hours",0.73
same,average of CFU/g,"5000 ppm ε-PL, after 24 hours",5.33E+00 CFU/g
same,Log Reduction,"5000 ppm ε-PL, after 24 hours",>3.00
same,outgrowth of Listeria,"final concentration of 3000 ppm in ground turkey, eight week period, 10° C.",completely inhibited the outgrowth of Listeria
